From patent publication US20230172206A1 (BASF SE, priority 2020, published 2023) come the findings set out here.

Test [1] relates to Phakopsora pachyrhizi (F129L). Nature of the test: Protective control of soybean rust on soybeans (PHAKPA P2). It counts as in vivo. The note with it: soybean rust F129L isolate; for % PHAKPA (F129L) Disease level P2 at 4 ppm: protective P2, 4 ppm; for % PHAKPA (F129L) Disease level P2 at 16 ppm: protective P2, 16 ppm.
Test [2] deals with Phakopsora pachyrhizi (F129L). Nature of the test: Protective control of soybean rust on soybeans (PHAKPA P6). It counts as in vivo. The note with it: soybean rust F129L isolate; for % PHAKPA (F129L) Disease level P6 at 4 ppm: protective P6, 4 ppm; for % PHAKPA (F129L) Disease level P6 at 16 ppm: protective P6, 16 ppm.

`CO/N=C(/C(=O)OC)c1cccc(C)c1CO/N=C(\C)c1c(C)cccc1F` [compound 285]: in test [1], the “% PHAKPA (F129L) Disease level P2 at 4 ppm” value came out at 87% and the “% PHAKPA (F129L) Disease level P2 at 16 ppm” value amounted to 50%. Also, in test [2], the “% PHAKPA (F129L) Disease level P6 at 4 ppm” value worked out at 90% and the “% PHAKPA (F129L) Disease level P6 at 16 ppm” value was 35%.

On to `C#Cc1cc(F)ccc1/C(C)=N/OCc1c(C)cccc1/C(=N\OC)C(=O)NC` [compound 286], for which, in test [1], the “% PHAKPA (F129L) Disease level P2 at 4 ppm” value was determined as 67% and the “% PHAKPA (F129L) Disease level P2 at 16 ppm” value came out at 15%. For the same compound, in test [2], the “% PHAKPA (F129L) Disease level P6 at 4 ppm” value is 97% and the “% PHAKPA (F129L) Disease level P6 at 16 ppm” value was 27%.

Regarding `CNC(=O)/C(=N/OC)c1cccc(C)c1CO/N=C(\C)c1ccccc1C1CC1(F)F` (stereo not shown) [compound 288], in test [1], the “% PHAKPA (F129L) Disease level P2 at 4 ppm” value is listed as 87% and the “% PHAKPA (F129L) Disease level P2 at 16 ppm” value worked out at 30%. Moreover, in test [2], the “% PHAKPA (F129L) Disease level P6 at 4 ppm” value was determined as 97% and the “% PHAKPA (F129L) Disease level P6 at 16 ppm” value was found to be 20%.

For `CNC(=O)/C(=N/OC)c1cccc(C)c1CO/N=C(\C)c1c(Cl)cccc1C(F)(F)F` [compound 290], in test [1], the “% PHAKPA (F129L) Disease level P2 at 4 ppm” value was determined as 92% and the “% PHAKPA (F129L) Disease level P2 at 16 ppm” value came to 14%. For the same compound, in test [2], the “% PHAKPA (F129L) Disease level P6 at 4 ppm” value came to 83% and the “% PHAKPA (F129L) Disease level P6 at 16 ppm” value is on record as 21%.

Consider `CC/C(=N\OCc1c(C)cccc1/C(=N\OC)C(=O)NC)c1ccccc1` [compound 294], for which, in test [1], the “% PHAKPA (F129L) Disease level P2 at 4 ppm” value is 1% and the “% PHAKPA (F129L) Disease level P2 at 16 ppm” value worked out at 1%. In test [2], the “% PHAKPA (F129L) Disease level P6 at 4 ppm” value is listed as 2% and the “% PHAKPA (F129L) Disease level P6 at 16 ppm” value is 0%.

Take `CNC(=O)/C(=N/OC)c1cccc(C)c1CO/N=C(\COC)c1ccccc1` [compound 295]: in test [1], the “% PHAKPA (F129L) Disease level P2 at 4 ppm” value was found to be 2% and the “% PHAKPA (F129L) Disease level P2 at 16 ppm” value is recorded as 0%. Also, in test [2], the “% PHAKPA (F129L) Disease level P6 at 4 ppm” value came out at 11% and the “% PHAKPA (F129L) Disease level P6 at 16 ppm” value came to 0%.

In the case of `CNC(=O)/C(=N/OC)c1cccc(C)c1CO/N=C(\C)c1ccccc1C1(C)CC1` [compound 296], in test [1], the “% PHAKPA (F129L) Disease level P2 at 4 ppm” value is listed as 100% and the “% PHAKPA (F129L) Disease level P2 at 16 ppm” value was found to be 40%. For the same compound, in test [2], the “% PHAKPA (F129L) Disease level P6 at 4 ppm” value amounted to 100% and the “% PHAKPA (F129L) Disease level P6 at 16 ppm” value was determined as 83%.

With `CO/N=C(/C(=O)OC)c1cccc(C)c1CO/N=C(\C)c1cccc(C2CC2)c1` [compound 297], in test [1], the “% PHAKPA (F129L) Disease level P2 at 4 ppm” value came to 90% and the “% PHAKPA (F129L) Disease level P2 at 16 ppm” value turned out to be 37%. Also, in test [2], the “% PHAKPA (F129L) Disease level P6 at 4 ppm” value was 87% and the “% PHAKPA (F129L) Disease level P6 at 16 ppm” value worked out at 37%.

As for `CNC(=O)/C(=N/OC)c1cccc(C)c1CO/N=C(\C)c1ccccc1C(F)F` [compound 298], in test [1], the “% PHAKPA (F129L) Disease level P2 at 4 ppm” value is recorded as 63% and the “% PHAKPA (F129L) Disease level P2 at 16 ppm” value was 7%. For the same compound, in test [2], the “% PHAKPA (F129L) Disease level P6 at 4 ppm” value came to 97% and the “% PHAKPA (F129L) Disease level P6 at 16 ppm” value came out at 37%.

`CNC(=O)/C(=N/OC)c1cccc(C)c1CO/N=C(\C)c1cccc(C2CC2)c1` [compound 299]: in test [1], the “% PHAKPA (F129L) Disease level P2 at 4 ppm” value was 53% and the “% PHAKPA (F129L) Disease level P2 at 16 ppm” value is 13%. Besides, in test [2], the “% PHAKPA (F129L) Disease level P6 at 4 ppm” value is 53% and the “% PHAKPA (F129L) Disease level P6 at 16 ppm” value is 22%.

For `CO/N=C(/C(=O)OC)c1cccc(C)c1CO/N=C(\C)c1cccc(C(C)(F)F)c1` [compound 302], in test [1], the “% PHAKPA (F129L) Disease level P2 at 4 ppm” value is reported as 47% and the “% PHAKPA (F129L) Disease level P2 at 16 ppm” value was 4%. For the same compound, in test [2], the “% PHAKPA (F129L) Disease level P6 at 4 ppm” value is 47% and the “% PHAKPA (F129L) Disease level P6 at 16 ppm” value is 3%.

Consider `CNC(=O)/C(=N/OC)c1cccc(C)c1CO/N=C(\C)c1cccc(C(C)(F)F)c1` [compound 303], for which, in test [1], the “% PHAKPA (F129L) Disease level P2 at 4 ppm” value came to 2% and the “% PHAKPA (F129L) Disease level P2 at 16 ppm” value is recorded as 0%. Besides, in test [2], the “% PHAKPA (F129L) Disease level P6 at 4 ppm” value was found to be 12% and the “% PHAKPA (F129L) Disease level P6 at 16 ppm” value is 0%.

`CO/N=C(/C(=O)OC)c1cccc(C)c1CO/N=C(\C)c1ccc(Cl)cc1C(F)(F)F` [compound 304]: in test [1], the “% PHAKPA (F129L) Disease level P2 at 4 ppm” value was determined as 53% and the “% PHAKPA (F129L) Disease level P2 at 16 ppm” value was determined as 28%. Besides, in test [2], the “% PHAKPA (F129L) Disease level P6 at 4 ppm” value was 100% and the “% PHAKPA (F129L) Disease level P6 at 16 ppm” value is on record as 37%.

In the case of `CNC(=O)/C(=N/OC)c1cccc(C)c1CO/N=C(\C)c1ccc(OC)cc1C(F)(F)F` [compound 324], in test [1], the “% PHAKPA (F129L) Disease level P2 at 4 ppm” value turned out to be 2% and the “% PHAKPA (F129L) Disease level P2 at 16 ppm” value stood at 1%. Further, in test [2], the “% PHAKPA (F129L) Disease level P6 at 4 ppm” value is listed as 12% and the “% PHAKPA (F129L) Disease level P6 at 16 ppm” value was determined as 0%.

For `CNC(=O)/C(=N/OC)c1cccc(C)c1CO/N=C(\C)c1c(F)cccc1OC(F)(F)F` [compound 325], in test [1], the “% PHAKPA (F129L) Disease level P2 at 4 ppm” value was determined as 24% and the “% PHAKPA (F129L) Disease level P2 at 16 ppm” value was 4%. In test [2], the “% PHAKPA (F129L) Disease level P6 at 4 ppm” value worked out at 22% and the “% PHAKPA (F129L) Disease level P6 at 16 ppm” value is reported as 1%.

Consider `CNC(=O)/C(=N/OC)c1cccc(C)c1CO/N=C(\C)c1cccc(F)c1C(F)(F)F` [compound 326], for which, in test [1], the “% PHAKPA (F129L) Disease level P2 at 4 ppm” value amounted to 25% and the “% PHAKPA (F129L) Disease level P2 at 16 ppm” value is recorded as 0%. Moreover, in test [2], the “% PHAKPA (F129L) Disease level P6 at 4 ppm” value came to 30% and the “% PHAKPA (F129L) Disease level P6 at 16 ppm” value is on record as 1%.

On to `CNC(=O)/C(=N/OC)c1cccc(C)c1CO/N=C(\C)c1ccc(C)cc1C(F)(F)F` [compound 327], for which, in test [1], the “% PHAKPA (F129L) Disease level P2 at 4 ppm” value is 23% and the “% PHAKPA (F129L) Disease level P2 at 16 ppm” value amounted to 3%. In test [2], the “% PHAKPA (F129L) Disease level P6 at 4 ppm” value is 48% and the “% PHAKPA (F129L) Disease level P6 at 16 ppm” value is recorded as 4%.

`CO/N=C(/C(=O)OC)c1cccc(C)c1CO/N=C(\C)c1ccc(OC)cc1C(F)(F)F` [compound 328]: in test [1], the “% PHAKPA (F129L) Disease level P2 at 4 ppm” value came to 33% and the “% PHAKPA (F129L) Disease level P2 at 16 ppm” value amounted to 8%. Moreover, in test [2], the “% PHAKPA (F129L) Disease level P6 at 4 ppm” value was 23% and the “% PHAKPA (F129L) Disease level P6 at 16 ppm” value amounted to 5%.

For `CNC(=O)/C(=N/OC)c1cccc(C)c1CO/N=C(\C)c1ccccc1OC1CC1` [compound 329], in test [1], the “% PHAKPA (F129L) Disease level P2 at 4 ppm” value amounted to 100% and the “% PHAKPA (F129L) Disease level P2 at 16 ppm” value worked out at 53%. In test [2], the “% PHAKPA (F129L) Disease level P6 at 4 ppm” value stood at 100% and the “% PHAKPA (F129L) Disease level P6 at 16 ppm” value is recorded as 73%.

Turning to `CO/N=C(/C(=O)OC)c1cccc(C)c1CO/N=C(\C)c1cccc(F)c1C(F)(F)F` [compound 330], in test [1], the “% PHAKPA (F129L) Disease level P2 at 4 ppm” value was determined as 83% and the “% PHAKPA (F129L) Disease level P2 at 16 ppm” value amounted to 24%. Also, in test [2], the “% PHAKPA (F129L) Disease level P6 at 4 ppm” value is recorded as 93% and the “% PHAKPA (F129L) Disease level P6 at 16 ppm” value came to 17%.

On to `CO/N=C(/C(=O)OC)c1cccc(C)c1CO/N=C(\C)c1ccc(Oc2ccc(Cl)cc2)cc1C(F)(F)F` [compound 335], for which, in test [1], the “% PHAKPA (F129L) Disease level P2 at 4 ppm” value stood at 77% and the “% PHAKPA (F129L) Disease level P2 at 16 ppm” value came out at 53%. Also, in test [2], the “% PHAKPA (F129L) Disease level P6 at 4 ppm” value worked out at 80% and the “% PHAKPA (F129L) Disease level P6 at 16 ppm” value was found to be 25%.

On to `CNC(=O)/C(=N/OC)c1cccc(C)c1CO/N=C(\C)c1ccc(Oc2ccc(Cl)cc2)cc1C(F)(F)F` [compound 336], for which, in test [1], the “% PHAKPA (F129L) Disease level P2 at 4 ppm” value was 63% and the “% PHAKPA (F129L) Disease level P2 at 16 ppm” value came to 20%. In test [2], the “% PHAKPA (F129L) Disease level P6 at 4 ppm” value came to 50% and the “% PHAKPA (F129L) Disease level P6 at 16 ppm” value is 17%.
